Results from patent publication US20200206233A1 (INTEGRAL BIOSCIENCES PRIVATE LIMITED, priority 2018, published 2020).
pIC50: −log10 of the molar value.

Experiments:
Assay type in all cases: biochemical
IDH2 mutant (R140Q) = molecular target: T1, IDH2 mutant (R140Q) (Homo sapiens, UniProt P48735, R140Q); test: Mutant IDH2-R140Q Fluorescence Assay (Resazurin based); details: 5 nM IDH2 R140Q, 4 hr pre-incubation, 1 mM α-ketoglutarate, 5 μM NADPH, 2 h
T1 construct: purchased BPS Bioscience 71100-2
T1 sequence (P48735 40-452 R140Q): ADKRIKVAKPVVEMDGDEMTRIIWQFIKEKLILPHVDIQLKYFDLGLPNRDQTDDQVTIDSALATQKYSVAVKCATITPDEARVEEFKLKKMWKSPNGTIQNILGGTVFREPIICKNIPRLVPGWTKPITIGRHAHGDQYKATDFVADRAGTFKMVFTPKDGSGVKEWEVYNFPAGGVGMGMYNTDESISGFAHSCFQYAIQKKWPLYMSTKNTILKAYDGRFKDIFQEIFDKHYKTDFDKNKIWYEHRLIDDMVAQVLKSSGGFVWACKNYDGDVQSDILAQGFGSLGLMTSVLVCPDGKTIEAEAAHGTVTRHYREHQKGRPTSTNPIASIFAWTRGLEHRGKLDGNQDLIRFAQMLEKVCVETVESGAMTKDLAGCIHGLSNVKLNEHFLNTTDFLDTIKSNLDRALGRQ
Description: IC50 values of compounds against IDH2 mutant (R140Q) were determined by Resazurin based Fluorescence assay. Assay was performed in Buffer (25 mM Tris HCl, 150 mM NaCl, 10 mM MgCl2, 0.03% BSA, 2 mM 1-mercaptoethanol) where total reaction volume was 12.5 μL in low-volume 384-well plates (Cat #4511, Corning). Serially diluted compounds (3-fold) were pre-incubated with IDH2 R140Q mutant enzyme (5 nM; Cat #71100-2, BPS Bioscience) for 4 hr at RT (25° C.) followed by addition of cocktail of α-ketoglutarate (1 mM; Cat #75892-25G, Sigma), and NADPH (5 μM; Cat # N1630-100MG, Sigma) with buffer in dark at room temperature for 2 h. After 2 h incubation, 6.25 μL detection solution containing Resazurin (30 μM; (Cat #62758-13-8, Sigma) and Diaphorase (40 ug/ml; Cat # D2197-300UN, Sigma) in buffer was added and incubated for 15 min. Readings were taken in a Synergy Neo Plate reader (BioTek, Winooski) at single excitation of 540 nm and emission at 590 nm respectively.
The % activity of test samples was calculated as (Sample−Min)×100/(Max−Min). [Max: DMSO control, complete reaction with enzyme with DMSO and Min: No enzyme with DMSO]. Percent inhibition (100−% activity) was fitted to the “four-parameter logistic model” in XLfit for determination of IC50 values.

IDH1 mutant (R132H) = molecular target: T2, IDH1 mutant (R132H) (Homo sapiens, UniProt O75874, R132H); test: Mutant IDH1-R132H Fluorescence Assay (Resazurin based); details: 10 nM IDH1 R132H, 4 mM α-ketoglutarate, NADPH, 1.5 h at room temperature
T2 construct: purchased BPS Bioscience 71099-2
Description: IC50 values of compounds against IDH1 mutant (R132H) was determined by Resazurin based Fluorescence assay. Assays were performed in Buffer (25 mM Tris HCl, 150 mM NaCl, 10 mM MgCl2, 0.03% BSA, 2 mM 1-mercaptoethanol) where total reaction volume was 12.5 μL in low-volume 384-well plates (Cat #4511, Corning). Serially diluted compounds (3-fold) were incubated with cocktail of α-ketoglutarate (4 mM; Cat #75892-25G, Sigma), NADPH ([…]; Cat # N1630-100MG, Sigma) and buffer for 5 min, following IDH1 R132H mutant (10 nM; Cat #71099-2, BPS Bioscience) was added and incubated in dark at room temperature for 1.5 h. After 1.5 h, 6.25 μL detection solution containing Resazurin ([…]; (Cat #62758-13-8, Sigma) and Diaphorase (40 ug/ml; Cat # D2197-300UN, Sigma) in buffer was added and incubated for 15 min. Readings were taken in a Synergy Neo Plate reader (BioTek, Winooski) at single excitation of 540 nm and emission at 590 nm respectively.
(§1) The % (percent) activity of test samples was calculated as (Sample−Min)×100/(Max−Min). [Max: DMSO control, complete reaction with enzyme with DMSO and Min: No enzyme with DMSO]. Percent inhibition (100−% activity) was fitted to the “four-parameter logistic model” in XLfit for determination of IC50 values.

IDH1-WT = molecular target: T3, IDH1-WT (Homo sapiens, UniProt O75874); test: IDH1-WT Fluorescence Assay (Resazurin based); details: 1 nM IDH1-WT, 200 μM isocitrate, 15 μM NADP+, 30 min at room temperature
T3 construct: purchased BPS Bioscience 71075-2
Description: IC50 values of compounds against IDH1-WT was determined by Resazurin based Fluorescence assay. Assays were performed in Buffer (50 mM Tris HCl, 10 mM MgCl2, 0.03% BSA, 2 mM ß-mercaptoethanol) where total reaction volume was 25 μL in low-volume 96-well plates. Serially diluted compounds (3-fold) in DMSO (0.5% in final reaction) were incubated with cocktail of isocitrate (200 μM; Cat # I1252-1G, Sigma), NADP^+ (15 μM; Cat # N0505-500MG, Sigma) and buffer for 5 min, following addition of IDH1-WT enzyme (1 nM; Cat #71075-2, BPS Bioscience) and incubated in dark at room temperature for 30 min. After that, 12.5 μL detection solution containing Resazurin (60 μM; Cat #62758-13-8, Sigma) and Diaphorase (40 μg/ml; Cat # D2197-300UN, Sigma) in buffer was added and incubated for 15 min. Readings were taken using a Synergy Neo Plate reader (BioTek, Winooski) at single excitation of 540 nm and emission at 590 nm respectively.
as §1

T2 sequence (O75874 whole entry R132H): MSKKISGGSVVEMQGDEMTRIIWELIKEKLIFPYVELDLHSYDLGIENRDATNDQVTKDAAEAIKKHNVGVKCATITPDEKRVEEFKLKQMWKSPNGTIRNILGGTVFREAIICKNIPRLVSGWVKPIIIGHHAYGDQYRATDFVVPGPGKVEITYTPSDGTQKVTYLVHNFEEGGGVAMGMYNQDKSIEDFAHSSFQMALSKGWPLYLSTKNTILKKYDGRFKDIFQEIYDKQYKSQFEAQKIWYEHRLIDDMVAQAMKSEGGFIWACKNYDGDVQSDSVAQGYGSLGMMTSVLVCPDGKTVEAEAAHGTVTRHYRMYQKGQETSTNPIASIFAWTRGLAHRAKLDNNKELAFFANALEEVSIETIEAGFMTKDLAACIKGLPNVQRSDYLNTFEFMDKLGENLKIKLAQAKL
T3 sequence (O75874 whole entry): as the sequence (O75874 whole entry R132H) above, with H132R counted along it

Structure (SMILES)	pIC50 (IDH2 mutant (R140Q))	pIC50 (IDH1 mutant (R132H))	pIC50 (IDH1-WT)
CC(C)[C@H]1COC(=O)N1c1ncnc(N[C@@H](C)c2cn(-c3ccc(Cl)cc3)cn2)n1 [Compound 1.13, (S)-3-(4-((S)-1-(1-(4-chlorophenyl)-1H-imidazol-4-yl)ethylamino)-1,3,5-triazin-2-yl)-4-isopropyloxazolidin-2-one]	< 4.30	6.11	< 4.52
CC(C)[C@H]1COC(=O)N1c1ncnc(N[C@@H](C)c2ccc(-c3ccnc(C(F)(F)F)c3)cn2)n1 [Compound 1.11, (S)-4-isopropyl-3-(4-((S)-1-(2′-(trifluoromethyl)-3,4′-bipyridin-6-yl)ethylamino)-1,3,5-triazin-2-yl)oxazolidin-2-one]	< 4.30	4.94	
CC(C)[C@H]1COC(=O)N1c1ncnc(N[C@H](C)c2ccc(Cl)c(Cl)c2)n1 [Compound 1.6, (S)-3-(4-((R)-1-(3,4-dichlorophenyl)ethylamino)-1,3,5-triazin-2-yl)-4-isopropyloxazolidin-2-one]		< 4.52	< 4.52
CC(C)[C@H]1COC(=O)N1c1ncnc(N[C@@H](C)c2ccc(-c3ccc(F)cc3)cn2)n1 [Compound 1.12, (S)-3-(4-((S)-1-(5-(4-fluorophenyl)pyridin-2-yl)ethylamino)-1,3,5-triazin-2-yl)-4-isopropyloxazolidin-2-one]	< 4.30	5.05	
Cc1cc(-c2cnc([C@@H](C)Nc3ncnc(N4C(=O)OC[C@@H]4C(C)C)n3)nc2)ccc1F [Compound 1.2, (4S)-3-(4-{[(1R)-1-[5-(4-fluoro-3-methylphenyl)pyrimidin-2-yl]ethyl]amino}-1,3,5-triazin-2-yl)-4-(propan-2-yl)-1,3-oxazolidin-2-one]		< 4.30	< 4.30

Continued, values first:

pIC50 (IDH2 mutant (R140Q))	pIC50 (IDH1 mutant (R132H))	pIC50 (IDH1-WT)	Structure (SMILES)
< 4.30	6.31	< 4.52	COc1nc(N[C@@H](C)c2ccc(Oc3ccccc3)cc2)nc(N2C(=O)OC[C@@H]2C(C)C)n1 [Compound 1.31, (S)-4-isopropyl-3-(4-methoxy-6-((S)-1-(4-phenoxyphenyl)ethylamino)-1,3,5-triazin-2-yl)oxazolidin-2-one]
< 4.30	6.40	< 4.30	Cc1nc(N[C@@H](C)c2ccc(Oc3ccccc3)cc2)nc(N2C(=O)OC[C@@H]2C(C)C)n1 [Compound 1.27, (S)-4-isopropyl-3-(4-methyl-6-((S)-1-(4-phenoxyphenyl)ethylamino)-1,3,5-triazin-2-yl)oxazolidin-2-one]
< 4.30	6.48	< 4.30	CC[C@H]1COC(=O)N1c1nc(C)nc(N[C@@H](C)c2cc3cc(Br)ccc3[nH]c2=O)n1 [Compound 1.66, (S)-3-(4-((S)-1-(6-bromo-2-oxo-1,2-dihydroquinolin-3-yl)ethylamino)-6-methyl-1,3,5-triazin-2-yl)-4-ethyloxazolidin-2-one]
< 4.30	6.08	< 4.30	CC[C@H]1COC(=O)N1c1nc(C)nc(N[C@@H](C)c2ccc(Oc3ccccc3)cn2)n1 [Compound 1.75, (S)-4-ethyl-3-(4-methyl-6-((S)-1-(5-phenoxypyridin-2-yl)ethylamino)-1,3,5-triazin-2-yl)oxazolidin-2-one]
< 4.30	6.44	< 4.30	CC(C)[C@H]1COC(=O)N1c1ncnc(N[C@@H](C)c2cc3cc(Cl)ccc3[nH]c2=O)n1 [Compound 1.23, (S)-3-(4-((S)-1-(6-chloro-2-oxo-1,2-dihydroquinolin-3-yl)ethylamino)-1,3,5-triazin-2-yl)-4-isopropyloxazolidin-2-one]
< 4.30	< 4.52	< 4.52	CC[C@@H](Nc1ncnc(N2C(=O)OC[C@@H]2C(C)C)n1)c1ccc(Oc2ccccc2)cc1 [Compound 1.34, (S)-4-isopropyl-3-(4-((R)-1-(4-phenoxyphenyl)propylamino)-1,3,5-triazin-2-yl)oxazolidin-2-one]
